# Experimental data published in US5013549A, “Production, isolation, and identification of novel antifungal compounds” (priority 1990, dated 1991).
# Entries after “also recorded” stand apart in the source; their conditions may differ. Read-outs that look alike come from different tables or passages of the source.
# Assays:
# fungi = conditions: known related compounds; cited from earlier work
# [1] = cited from earlier work
# murine tumors = conditions: more active than adriamycin; cited from earlier work
# Aspergillus fumigatus = experiment: Minimum inhibitory concentration, Aspergillus fumigatus; format: cell-based
# Method: (§1) Known amounts of the purified substance were dissolved in DMSO and serial dilutions prepared in the same solvent. A 20 ul volume of each dilution was placed on the surface of Emmon's agar in petri-dishes seeded with various test strains of pathogenic and saprophytic fungi. The antibacterial activity was monitored using Muller-Hilton agar. The minimum inhibitory concentration (MIC) was determined by incorporating known amount of the DMSO dissolved purified substance into Emmon's liquid medium (same as stated earlier but devoid of agar) contained in test tubes. The tubes were inoculated with ca 2×10^3 CFU of the test organisms. The inoculated tubes were incubated at 26° C. and the results recorded after two to 5 days depending upon the growth pattern of the test organisms (certain fungi grow faster than others). Tubes inoculated in an identical manner but devoid of the active substance served as controls.
# Stability in 2N HCl = format: physicochemical
# C. neoformans- G-3 = experiment: Minimum inhibitory concentration, C. neoformans- G-3; format: cell-based; conditions: Cryptococcus neoformans
# Method: as §1
# C. neoformans serotype-C = experiment: Minimum inhibitory concentration, C. neoformans serotype-C; format: cell-based; conditions: Cryptococcus neoformans
# Method: as §1
# C. quilliermondii = experiment: Minimum inhibitory concentration, C. quilliermondii; format: cell-based
# Method: as §1
# [2] = tested on: S. aureus (multiple drug resistant); experiment: Minimum inhibitory concentration, S. aureus (multiple drug resistant); format: cell-based, Staphylococcus aureus; conditions: bacterial strain
# Method: as §1
# Pseudomonas aeruginosa = experiment: Minimum inhibitory concentration, Pseudomonas aeruginosa; format: cell-based; conditions: bacterial strain
# Method: as §1
# C. neoformans- N-3 = experiment: Minimum inhibitory concentration, C. neoformans- N-3; format: cell-based; conditions: Cryptococcus neoformans; N = encapsulated, mucoid strain with neurotropic tendencies; 26° C., 2 to 5 days
# Method: as §1
# Cladosporium species = experiment: Minimum inhibitory concentration, Cladosporium species; format: cell-based; conditions: 26° C., 2 to 5 days, Emmon's liquid medium, fungus
# Method: as §1
# Citrobacter species = experiment: Minimum inhibitory concentration, Citrobacter species; format: cell-based; conditions: bacterial strain
# Method: as §1
# A. niger = experiment: Minimum inhibitory concentration, A. niger; format: cell-based; conditions: Aspergillus niger; 26° C., 2 to 5 days, Emmon's liquid medium; fungus
# Method: as §1
# Solubility = format: physicochemical
# A. flavus = experiment: Minimum inhibitory concentration, A. flavus; format: cell-based; conditions: Aspergillus flavus; 26° C., 2 to 5 days, Emmon's liquid medium; fungus
# Method: as §1
# Candida albicans = experiment: Minimum inhibitory concentration, Candida albicans; format: cell-based; conditions: 26° C., 2 to 5 days, Emmon's liquid medium, fungus
# Method: as §1
# Rhodotorula rubra = experiment: Minimum inhibitory concentration, Rhodotorula rubra; format: cell-based
# Method: as §1
# Escherichia coli = experiment: Minimum inhibitory concentration, Escherichia coli; format: cell-based; conditions: bacterial strain
# Method: as §1
# [3] = tested on: Cryptococcus neoformans-N-2; experiment: Minimum inhibitory concentration, Cryptococcus neoformans-N-2; format: cell-based; conditions: N = encapsulated, mucoid strain with neurotropic tendencies, 26° C., 2 to 5 days
# Method: as §1
# S. aureus ATCC 25923 = experiment: Minimum inhibitory concentration, S. aureus ATCC 25923; format: cell-based, Staphylococcus aureus; conditions: bacterial strain ATCC 25923
# Method: as §1
# R. glutinis = experiment: Minimum inhibitory concentration, R. glutinis; format: cell-based; conditions: Rhodotorula glutinis
# Method: as §1
# Plebsiella pneumoniae = experiment: Minimum inhibitory concentration, Plebsiella pneumoniae; format: cell-based
# Method: as §1
# Penicillium species = experiment: Minimum inhibitory concentration, Penicillium species; format: cell-based; conditions: 26° C., 2 to 5 days, Emmon's liquid medium, fungus
# Method: as §1
# [4] = tested on: Staphylococcus aureus ATCC 29213; experiment: Minimum inhibitory concentration, Staphylococcus aureus ATCC 29213; format: cell-based; conditions: bacterial strain ATCC 29213
# Method: as §1
# C.neoformans serotype-D = experiment: Minimum inhibitory concentration, C.neoformans serotype-D; format: cell-based; conditions: Cryptococcus neoformans, 26° C., 2 to 5 days
# Method: as §1
structure (smiles),measurement,setting,value
CCC1(O)CC(OC2CC(N(C)C)C(OC3CC(O)C(OC4CCC(=O)C(C)O4)C(C)O3)C(C)O2)c2c(cc3c(c2O)C(=O)c2c(O)ccc(O)c2C3=O)C1C(=O)OC (stereo not drawn) [cinerubin A],antifungal properties,fungi,not significantly antifungal
same,solubility of known cinerubins,[1]; in ethanol,soluble
same,solubility of known cinerubins,[1]; in methanol,soluble
CC[C@@]1(O)C[C@H](O[C@H]2C[C@H](N(C)C)[C@H](O[C@H]3C[C@@H]4O[C@H]5CC(=O)[C@H](C)O[C@H]5O[C@@H]4[C@H](C)O3)[C@H](C)O2)c2c(cc3c(c2O)C(=O)c2c(O)ccc(O)c2C3=O)[C@H]1C(=O)OC [cinerubin B],antifungal properties,fungi,not significantly antifungal
same,solubility of known cinerubins,[1]; in ethanol,soluble
same,solubility of known cinerubins,[1]; in methanol,soluble
CCN[C@H]1CO[C@@H](O[C@H]2[C@H](O[C@H]3C#C/C=C\C#C[C@]4(O)CC(=O)C(NC(=O)OC)=C3/C4=C\CSSSC)O[C@H](C)[C@@H](NO[C@H]3C[C@H](O)[C@H](SC(=O)c4c(C)c(I)c(O[C@@H]5O[C@@H](C)[C@H](O)[C@@H](OC)[C@H]5O)c(OC)c4OC)[C@@H](C)O3)[C@@H]2O)C[C@@H]1OC [Calicheamicin],activity relative to adriamycin against murine tumors,murine tumors,approximately 1000 -fold
CCC1(O)CC(OC2CC(N(C)C)C(OC3CC(O)C(OC4CCC(=O)C(C)O4)C(C)O3)C(C)O2)c2c(cc3c(c2O)C(=O)c2c(O)ccc(O)c2C3=O)C1C(=O)OC (stereo not drawn) [spartanamicin B],MIC,Aspergillus fumigatus,0.4 µg/mL
same,stability upon standing in 2N HCl,Stability in 2N HCl,hydrolyses
same,MIC,C. neoformans- G-3,1 µg/mL
same,MIC,C. neoformans serotype-C,0.8 µg/mL
same,MIC,C. quilliermondii,0.8 µg/mL
same,MIC,[2],not active
same,MIC,Pseudomonas aeruginosa,100 µg/mL
same,MIC,C. neoformans- N-3,0.6 µg/mL
same,MIC,Cladosporium species,0.4 µg/mL
same,MIC,Citrobacter species,not active
same,MIC,A. niger,0.6 µg/mL
same,Solubility,Solubility; in 1-butanol,Sparingly soluble
same,Solubility,Solubility; in 2N HCl,Insoluble
same,Solubility,"Solubility; in N,N-dimethyl formamide (DMF)",Soluble
same,Solubility,Solubility; in acetone,Soluble
same,Solubility,Solubility; in acetonitrile,Sparingly soluble
same,Solubility,Solubility; in carbon tetrachloride,Soluble
same,Solubility,Solubility; in chloroform,Soluble
same,Solubility,Solubility; in cyclohexane,Insoluble
same,Solubility,Solubility; in dimethyl sulfoxide (DMSO),Soluble
same,Solubility,Solubility; in ethanol,not soluble; also recorded: Sparingly soluble
same,Solubility,Solubility; in ethyl acetate,Soluble
same,Solubility,Solubility; in glacial acetic acid,Soluble
same,Solubility,Solubility; in hexane,Insoluble
same,Solubility,Solubility; in methanol,not soluble; also recorded: Sparingly soluble
same,Solubility,Solubility; in toluene,Soluble
same,Solubility,Solubility; in water,Insoluble
same,MIC,A. flavus,0.6 µg/mL
same,MIC,Candida albicans,0.2 µg/mL
same,MIC,Rhodotorula rubra,0.8 µg/mL
same,MIC,Escherichia coli,not active
same,MIC,[3],0.8 µg/mL
same,MIC,S. aureus ATCC 25923,0.8 µg/mL
same,MIC,R. glutinis,0.4 µg/mL
same,MIC,Plebsiella pneumoniae,100 µg/mL
same,MIC,Penicillium species,0.2 µg/mL
same,MIC,[4],0.8 µg/mL
same,MIC,C.neoformans serotype-D,0.8 µg/mL
